From patent US20190248779A1, “COMPOUNDS, COMPOSITIONS, AND METHODS FOR INCREASING CFTR ACTIVITY” (Proteostasis Therapeutics, Inc., priority 2016, published 2019) come the findings set out here.

For the assay, the target named is T1, ΔF508-CFTR (Homo sapiens, UniProt P13569, DEL508-508).
T1 construct: Primary lung epithelial cells homozygous for the Cystic Fibrosis-causing ΔF508 mutation were differentiated for a minimum of 4 weeks; endogenous in cells; host or cells: primary lung (bronchial) epithelial cells (hBE) homozygous for ΔF508, differentiated at an air-liquid interface
T1 sequence (P13569 with tags, fused parts or gaps DEL508-508): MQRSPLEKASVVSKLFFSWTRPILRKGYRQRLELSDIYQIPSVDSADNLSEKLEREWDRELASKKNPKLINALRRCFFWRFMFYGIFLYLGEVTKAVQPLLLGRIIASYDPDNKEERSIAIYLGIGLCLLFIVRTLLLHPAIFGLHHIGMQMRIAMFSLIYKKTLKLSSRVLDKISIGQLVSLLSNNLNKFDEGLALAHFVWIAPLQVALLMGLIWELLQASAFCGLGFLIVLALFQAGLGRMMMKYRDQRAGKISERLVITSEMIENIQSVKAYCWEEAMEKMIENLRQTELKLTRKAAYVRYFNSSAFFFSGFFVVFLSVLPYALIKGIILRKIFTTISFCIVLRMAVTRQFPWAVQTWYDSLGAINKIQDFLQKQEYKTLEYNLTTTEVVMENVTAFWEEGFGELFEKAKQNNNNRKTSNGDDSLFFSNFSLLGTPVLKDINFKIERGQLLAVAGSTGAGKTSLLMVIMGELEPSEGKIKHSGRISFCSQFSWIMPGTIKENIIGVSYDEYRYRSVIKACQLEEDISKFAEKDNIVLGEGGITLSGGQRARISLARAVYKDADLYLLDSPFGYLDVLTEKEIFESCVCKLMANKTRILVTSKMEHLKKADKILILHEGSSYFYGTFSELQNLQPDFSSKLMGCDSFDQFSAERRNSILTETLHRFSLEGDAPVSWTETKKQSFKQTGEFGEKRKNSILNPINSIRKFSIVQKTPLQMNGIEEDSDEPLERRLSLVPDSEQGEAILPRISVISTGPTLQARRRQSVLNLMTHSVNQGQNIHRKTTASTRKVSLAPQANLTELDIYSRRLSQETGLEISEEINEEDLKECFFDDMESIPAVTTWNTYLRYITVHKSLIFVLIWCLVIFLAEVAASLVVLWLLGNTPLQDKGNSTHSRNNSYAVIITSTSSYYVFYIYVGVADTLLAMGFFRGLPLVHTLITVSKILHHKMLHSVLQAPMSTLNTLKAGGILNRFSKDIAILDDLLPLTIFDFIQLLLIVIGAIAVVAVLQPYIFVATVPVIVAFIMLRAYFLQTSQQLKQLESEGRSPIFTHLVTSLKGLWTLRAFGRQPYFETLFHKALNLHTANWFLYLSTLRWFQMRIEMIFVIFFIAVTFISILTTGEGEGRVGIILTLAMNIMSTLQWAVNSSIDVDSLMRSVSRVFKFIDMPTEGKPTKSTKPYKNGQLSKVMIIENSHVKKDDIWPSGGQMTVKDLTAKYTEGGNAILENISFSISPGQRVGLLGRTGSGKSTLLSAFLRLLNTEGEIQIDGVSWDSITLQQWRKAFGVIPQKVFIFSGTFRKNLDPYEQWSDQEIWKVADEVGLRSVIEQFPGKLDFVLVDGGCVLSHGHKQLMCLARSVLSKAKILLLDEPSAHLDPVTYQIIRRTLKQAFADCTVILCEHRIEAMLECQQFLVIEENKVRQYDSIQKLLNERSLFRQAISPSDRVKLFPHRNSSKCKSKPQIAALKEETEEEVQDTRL
The assay can be described thus: hBE equivalent current (Ieq) assay. It is filed as cell-based. The settings on record: 24 h, relative to a CFTR amplifier at 3 uM, AUC of equivalent chloride current, primary lung epithelial cells homozygous for ΔF508; for Activity 3 μM: compound at 3 μM; for Activity 10 μM: compound at 10 μM. Here is the method: ii. hBE Equivalent Current (Ieq) Assay
Primary lung epithelial cells homozygous for the Cystic Fibrosis-causing ΔF508 mutation were differentiated for a minimum of 4 weeks in an air-liquid interface on Costar 24 well HTS filter plates prior to the equivalent current (Ieq) measurements. Cells were apically mucus-washed for 30 minutes 24 h prior to treatment with compounds. The basolateral media was removed and replaced with media containing the compound of interest diluted to its final concentration from DMSO stocks. Treated cells were incubated at 37° C. and 5% CO2 for 24 hours. At the end of the treatment period, the media was changed to the Ieq experimental solution for 2 hours before the experiment and plates are maintained in a CO2-free incubator during this period. The plates containing the cells were then placed in pre-warmed heating blocks at 36° C.±0.5 for 15 minutes before measurements are taken. The transepithelial voltage (VT) and conductance (GT) were measured using a custom 24 channel current clamp (TECC-24) with 24 well electrode manifold. The Ieq assay measurements were made following additions with standardized time periods:
1. The baseline VT and GT values were measured for approximately 20 minutes.
2. Benzamil was added to block ENaC for 15 minutes.
3. Forskolin plus VX-770 were added to maximally activate ΔF508-CFTR for 27 minutes.
4. Bumetanide was added to inhibit the NaK2Cl cotransporter and shut-off secretion of chloride.
The activity data captured was the area under the curve (AUC) for the traces of the equivalent chloride current. The AUC was collected from the time of the forskolin/VX-770 addition until the inhibition by bumetanide addition. Correction in response to compound treatment was scored as the increase in the AUC for compound-treated samples over that of vehicle-treated samples.
The results are shown below in Table 1. + indicates activity <150% of a CFTR amplifier with compound at concentration shown and amplifier at 3 uM; ++ indicates activity >150% of a CFTR amplifier with compound at concentration shown and amplifier at 3 uM.

In the case of `CC(C(=O)Nc1cc(F)cc(F)c1)n1nc(-c2ccc3cc[nH]c3c2)ccc1=O` (stereo not shown) [Compound 7, 2-(3-(1H-Indol-6-yl)-6-oxopyridazin-1(6H)-yl)-N-(3,5-difluorophenyl)propanamide], the “Activity 3 μM” value was “+ (activity <150% of a CFTR amplifier with compound at concentration shown and amplifier at 3 uM)”; the “Activity 10 μM” value was “+ (activity <150% of a CFTR amplifier with compound at concentration shown and amplifier at 3 uM)”. On to `CC(C(=O)Nc1ccc(C(F)(F)F)cc1)n1nc(-c2cc(Cl)cs2)ccc1=O` (stereo not shown) [Compound 23, 2-(3-(4-Chlorothiophen-2-yl)-6-oxopyridazin-1(6H)-yl)-N-(4-(trifluoromethyl)phenyl)propanamide], for which the “Activity 10 μM” value was “++ (activity >150% of a CFTR amplifier with compound at concentration shown and amplifier at 3 uM)”. As for `COc1cccc(-c2ccc(=O)n(C(C)C(=O)Nc3ccc4[nH]ccc4c3)n2)c1` (stereo not shown) [Compound 3, N-(1H-Indol-5-yl)-2-(3-(3-methoxyphenyl)-6-oxopyridazin-1(6H)-yl)propanamide], the “Activity 3 μM” value is “+ (activity <150% of a CFTR amplifier with compound at concentration shown and amplifier at 3 uM)”; the “Activity 10 μM” value is “+ (activity <150% of a CFTR amplifier with compound at concentration shown and amplifier at 3 uM)”.

On to `COc1cccc(-c2ccc(=O)n(C(C)C(=O)Nc3cccc(C(F)(F)F)n3)n2)c1` (stereo not shown) [Compound 10, 2-(3-(3-Methoxyphenyl)-6-oxopyridazin-1(6H)-yl)-N-(6-(trifluoromethyl)pyridin-2-yl)propanamide], for which the “Activity 3 μM” value was “++ (activity >150% of a CFTR amplifier with compound at concentration shown and amplifier at 3 uM)”; the “Activity 10 μM” value was “++ (activity >150% of a CFTR amplifier with compound at concentration shown and amplifier at 3 uM)”. In the case of `COc1cccc(-c2ccc(=O)n(C(C)C(=O)Nc3cncc(C(F)(F)F)c3)n2)c1` (stereo not shown) [Compound 12, 2-(3-(3-Methoxyphenyl)-6-oxopyridazin-1(6H)-yl)-N-(5-(trifluoromethyl)pyridin-3-yl)propanamide], the “Activity 3 μM” value was “+ (activity <150% of a CFTR amplifier with compound at concentration shown and amplifier at 3 uM)”; the “Activity 10 μM” value was “+ (activity <150% of a CFTR amplifier with compound at concentration shown and amplifier at 3 uM)”. As to `COc1cccc(-c2ccc(=O)n(C(C)C(=O)Nc3cc(C(F)(F)F)ccn3)n2)c1` (stereo not shown) [Compound 11, 2-(3-(3-Methoxyphenyl)-6-oxopyridazin-1(6H)-yl)-N-(4-(trifluoromethyl)pyridin-2-yl)propanamide], the “Activity 3 μM” value is “++ (activity >150% of a CFTR amplifier with compound at concentration shown and amplifier at 3 uM)”; the “Activity 10 μM” value was “++ (activity >150% of a CFTR amplifier with compound at concentration shown and amplifier at 3 uM)”. On to `CC(C(=O)Nc1ccc(C(F)(F)F)cc1)n1nc(-c2ccsc2)ccc1=O` (stereo not shown) [Compound 15, 2-(6-Oxo-3-(thiophen-3-yl)pyridazin-1(6H)-yl)-N-(4-(trifluoromethyl)phenyl)propanamide], for which the “Activity 3 μM” value was “++ (activity >150% of a CFTR amplifier with compound at concentration shown and amplifier at 3 uM)”; the “Activity 10 μM” value is “+ (activity <150% of a CFTR amplifier with compound at concentration shown and amplifier at 3 uM)”.
